In US11596639B2, “Substituted indole Mcl-1 inhibitors” (Vanderbilt University, priority 2016, dated 2023):
Read-outs that look alike come from different tables or passages of the source.

Experiments:
Mcl-1 = Mcl-1 (Homo sapiens (Human), UniProt Q07820); experiment: Fluorescence polarization anisotropy (FPA) competition assay, FITC-Bak or FITC-Bim BH3 peptide; assay type: binding; conditions: read-out: Ki for Inhibition of Mcl-1 by FPA assay
[1] = tested on: H929 human cancer cell lines; experiment: Cellular viability / proliferation (Cell TiterGlo, 72 h); assay type: cell-based
Outline: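 Top dose 50 μM, serially diluted 2-fold, applied one day after seeding (1,000 cells/well, 10% FBS), DMSO below 1%.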

[2] = Homo sapiens, NCI-H929, 72 h, read-out: GI50 on cellular proliferation of H929 human cancer cell lines, H929 cells, 72 h, Cell TiterGlo, 10% FBS

Sequence of Mcl-1 (Q07820 172-327): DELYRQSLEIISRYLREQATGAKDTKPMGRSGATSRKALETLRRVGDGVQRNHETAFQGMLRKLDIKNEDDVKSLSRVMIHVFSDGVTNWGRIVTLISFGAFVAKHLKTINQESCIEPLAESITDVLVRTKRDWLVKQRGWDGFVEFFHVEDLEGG

Compound | Ki (Mcl-1) | GI50 ([1]; H929 cells, 72 h, Cell TiterGlo, 10% FBS, read-out: GI50 on cellular proliferation of H929 human cancer cell lines) | GI50 [1, 2]
COCCOc1ccc(N2C[C@@H](C)n3c(c(CCCOc4cc(C)c(Cl)c(C)c4)c4ccc(Cl)c(-c5c(C)nn(C)c5C)c43)C2=O)c2c1cc(C(=O)O)n2C [Example 325, (M, R)-7-(7-Chloro-10-(3-(4-chloro-3,5-dimethylphenoxy)propyl)-4-methyl-1-oxo-6-(1,3,5-trimethyl-1H-pyrazol-4-yl)-3,4-dihydropyrazino[1,2-a]indol-2(1H)-yl)-4-(2-methoxyethoxy)-1-methyl-1H-indole-2-carboxylic acid] | < 1 nM | 290 nM | –
Cc1cc(OCCCc2c3n(c4c(-c5c(C)nn(C)c5C)c(Cl)ccc24)CCCN(c2cc(C(=O)O)cc4c2ccn4S(C)(=O)=O)C3=O)cc(C)c1Cl [Example 32, 4-(8-Chloro-11-(3-(4-chloro-3,5-dimethylphenoxy)propyl)-1-oxo-7-(1,3,5-trimethyl-1H-pyrazol-4-yl)-4,5-dihydro-1H-[1,4]diazepino[1,2-a]indol-2(3H)-yl)-1-(methylsulfonyl)-1H-indole-6-carboxylic acid] | < 1 nM | – | 7600 nM
Cc1cc(OCCCc2c3n(c4c(-c5c(C)nn(C)c5C)c(Cl)ccc24)[C@H](C)CN(c2ccc(F)c4c(C(=O)O)c[nH]c24)C3=O)cc(C)c1Cl [Example 438, (R)-7-(7-Chloro-10-(3-(4-chloro-3,5-dimethylphenoxy)propyl)-4-methyl-1-oxo-6-(1,3,5-trimethyl-1H-pyrazol-4-yl)-3,4-dihydropyrazino[1,2-a]indol-2(1H)-yl)-4-fluoro-1H-indole-3-carboxylic acid] | 1.1 nM | – | 2800 nM
Cc1cc(OCCCc2c3n(c4c(-c5c(C)n[nH]c5C)c(Cl)ccc24)[C@H](C)CN(c2cc(C(=O)O)cc4c2ccn4C)C3=O)cc(C)c1Cl [Example 71, (R)-4-(7-chloro-10-(3-(4-chloro-3,5-dimethylphenoxy)propyl)-6-(3,5-dimethyl-1H-pyrazol-4-yl)-4-methyl-1-oxo-3,4-dihydropyrazino[1,2-a]indol-2(1H)-yl)-1-methyl-1H-indole-6-carboxylic acid] | < 1 nM | – | 3300 nM
Cc1cc(OCCCc2c3n(c4c(-c5c(C)ncnc5C)c(Cl)ccc24)CCCN(c2cccc4c(C(=O)O)cn(C)c24)C3=O)cc(C)c1Cl [Example 119, 7-[8-chloro-11-[3-(4-chloro-3,5-dimethyl-phenoxy)propyl]-7-(4,6-dimethylpyrimidin-5-yl)-1-oxo-4,5-dihydro-3H-[1,4]diazepino[1,2-a]indol-2-yl]-1-methyl-indole-3-carboxylic acid] | < 1 nM | – | 2900 nM
Cc1cc(N2C[C@@H](C)n3c(c(CCCOc4cc(C)c(Cl)c(C)c4)c4ccc(Cl)c(-c5c(C)ncnc5C)c43)C2=O)c2c(c1)cc(C(N)=O)n2Cc1ccccn1 [Example 379, (R)-7-(7-chloro-10-(3-(4-chloro-3,5-dimethylphenoxy)propyl)-6-(4,6-dimethylpyrimidin-5-yl)-4-methyl-1-oxo-3,4-dihydropyrazino[1,2-a]indol-2(1H)-yl)-5-methyl-1-(pyridin-2-ylmethyl)-1H-indole-2-carboxamide] | 3.6 nM | – | 560 nM
Cc1cc(OCCCc2c3n(c4c(-c5c(C)n[nH]c5C)c(Cl)ccc24)[C@H](C)CN(c2cn(C)c4cc(C(=O)O)ccc24)C3=O)cc(C)c1Cl [Example 109, (R)-3-(7-chloro-10-(3-(4-chloro-3,5-dimethylphenoxy)propyl)-6-(3,5-dimethyl-1H-pyrazol-4-yl)-4-methyl-1-oxo-3,4-dihydropyrazino[1,2-a]indol-2(1H)-yl)-1-methyl-1H-indole-6-carboxylic acid] | < 1 nM | – | 710 nM
CCn1nc2c(N3C[C@@H](C)n4c(c(CCCOc5cc(C)c(Cl)c(C)c5)c5ccc(Cl)c(-c6c(C)nn(C)c6C)c54)C3=O)cccc2c1C(=O)O [Example 117, (R)-7-(7-chloro-10-(3-(4-chloro-3,5-dimethylphenoxy)propyl)-4-methyl-1-oxo-6-(1,3,5-trimethyl-1H-pyrazol-4-yl)-3,4-dihydropyrazino[1,2-a]indol-2(1H)-yl)-2-ethyl-2H-indazole-3-carboxylic acid] | < 1 nM | – | 390 nM
COc1ccnc(Cn2c(C(=O)O)cc3cccc(N4C[C@@H](C)n5c(c(CCCOc6cc(C)c(Cl)c(C)c6)c6ccc(Cl)c(-c7c(C)nn(C)c7C)c65)C4=O)c32)c1 [Example 378, (R)-7-(7-Chloro-10-(3-(4-chloro-3,5-dimethylphenoxy)propyl)-4-methyl-1-oxo-6-(1,3,5-trimethyl-1H-pyrazol-4-yl)-3,4-dihydropyrazino[1,2-a]indol-2(1H)-yl)-1-((4-methoxypyridin-2-yl)methyl)-1H-indole-2-carboxylic acid] | 1.9 nM | – | 410 nM
Cc1cc(OCCCc2c3n(c4c(-c5c(C)nn(C)c5C)c(Cl)ccc24)CCCN(c2cc(C(=O)O)c4nnn(C)c4c2)C3=O)cc(C)c1Cl [Example 4, 6-[8-Chloro-11-[3-(4-chloro-3,5-dimethyl-phenoxy)propyl]-1-oxo-7-(1,3,5-trimethylpyrazol-4-yl)-4,5-dihydro-3H-[1,4]diazepino[1,2-a]indol-2-yl]-1-methyl-benzotriazole-4-carboxylic acid] | 3.3 nM | – | 8700 nM
CCn1cc(N2C[C@@H](C)n3c(c(CCCOc4cc(C)c(Cl)c(C)c4)c4ccc(Cl)c(-c5c(C)nn(C)c5C)c43)C2=O)c2ccc(C(=O)O)cc21 [Example 104, (R)-3-(7-Chloro-10-(3-(4-chloro-3,5-dimethylphenoxy)propyl)-4-methyl-1-oxo-6-(1,3,5-trimethyl-1H-pyrazol-4-yl)-3,4-dihydropyrazino[1,2-a]indol-2(1H)-yl)-1-ethyl-1H-indole-6-carboxylic acid] | < 1 nM | – | 570 nM
Cc1cc(OCCCc2c3n(c4c(-c5c(C)nc(CN6CCOCC6)nc5C)c(Cl)ccc24)[C@H](C)CN(c2cn(C)c4ccc(C(=O)O)cc24)C3=O)cc(C)c1Cl [Example 398, (R)-3-(7-Chloro-10-(3-(4-chloro-3,5-dimethylphenoxy)propyl)-6-(4,6-dimethyl-2-(morpholinomethyl)pyrimidin-5-yl)-4-methyl-1-oxo-3,4-dihydropyrazino[1,2-a]indol-2(1H)-yl)-1-methyl-1H-indole-5-carboxylic acid] | < 1 nM | – | 200 nM
CC(=O)Nc1ccc2c(c1)c(N1C[C@@H](C)n3c(c(CCCOc4cc(C)c(Cl)c(C)c4)c4ccc(Cl)c(-c5c(C)nn(C)c5C)c43)C1=O)cn2C [Example 257, N-[3-[(4R)-7-chloro-10-[3-(4-chloro-3,5-dimethyl-phenoxy)propyl]-4-methyl-1-oxo-6-(1,3,5-trimethylpyrazol-4-yl)-3,4-dihydropyrazino[1,2-a]indol-2-yl]-1-methyl-indol-5-yl]acetamide] | 2.3 nM | – | 470 nM
Cc1cc(OCCCc2c3n(c4c(-c5c(C)nn(C)c5C)c(Cl)ccc24)[C@H](C)CN(c2cn(C)c4ccc(C#N)cc24)C3=O)cc(C)c1Cl [Example 208, (R)-3-(7-Chloro-10-(3-(4-chloro-3,5-dimethylphenoxy)propyl)-4-methyl-1-oxo-6-(1,3,5-trimethyl-1H-pyrazol-4-yl)-3,4-dihydropyrazino[1,2-a]indol-2(1H)-yl)-1-methyl-1H-indole-5-carbonitrile] | < 1 nM | – | 1600 nM
